Where two headings read alike, the source gives them in different places.
Biological target: T1, Androgen Receptor (Homo sapiens, UniProt P10275)
T1 construct: endogenous in cells; host or cells: VCaP cells
T1 sequence (P10275 1-920): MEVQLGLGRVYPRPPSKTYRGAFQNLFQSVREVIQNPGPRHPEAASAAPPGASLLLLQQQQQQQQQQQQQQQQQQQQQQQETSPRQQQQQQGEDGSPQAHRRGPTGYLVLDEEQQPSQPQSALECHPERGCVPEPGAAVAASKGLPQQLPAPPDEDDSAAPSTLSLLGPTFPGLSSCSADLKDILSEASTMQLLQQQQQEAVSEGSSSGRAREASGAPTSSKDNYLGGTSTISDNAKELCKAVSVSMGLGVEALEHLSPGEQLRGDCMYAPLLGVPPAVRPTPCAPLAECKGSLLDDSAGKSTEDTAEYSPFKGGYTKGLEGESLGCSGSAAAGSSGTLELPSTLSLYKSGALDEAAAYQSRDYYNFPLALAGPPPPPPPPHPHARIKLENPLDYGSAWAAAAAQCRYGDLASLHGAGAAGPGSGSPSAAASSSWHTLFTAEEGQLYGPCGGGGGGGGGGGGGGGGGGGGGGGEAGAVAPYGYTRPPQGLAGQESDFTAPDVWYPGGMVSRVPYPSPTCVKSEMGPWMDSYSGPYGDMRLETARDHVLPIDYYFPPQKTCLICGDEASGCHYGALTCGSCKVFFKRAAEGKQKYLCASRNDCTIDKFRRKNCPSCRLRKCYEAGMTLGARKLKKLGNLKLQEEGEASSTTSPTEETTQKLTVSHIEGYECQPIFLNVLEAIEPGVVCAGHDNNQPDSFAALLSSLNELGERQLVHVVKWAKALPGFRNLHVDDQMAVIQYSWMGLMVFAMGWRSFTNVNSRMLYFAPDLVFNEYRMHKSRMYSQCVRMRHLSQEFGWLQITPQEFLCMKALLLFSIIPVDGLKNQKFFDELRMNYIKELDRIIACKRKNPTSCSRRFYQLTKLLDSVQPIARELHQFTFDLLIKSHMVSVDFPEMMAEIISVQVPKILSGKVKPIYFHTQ
Assay: Androgen Receptor ELISA assay (PathScan AR ELISA) in VCaP cells: AR degradation, Dmax and DC50
Assay type: cell-based
Method in brief: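 After 24 h exposure of VCaP cells (charcoal-stripped serum, 0.1 nM R1881 agonist, 0.1% DMSO) to seven half-log compound concentrations, residual AR in lysates was measured by PathScan ELISA (TMB absorbance, 450 nm). Cells were plated at 30,000/well and grown at least 3 days beforehand.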

[1] = VCaP cells; concentration that caused 50% Androgen Receptor degradation; read-out: VCaP DC50
[2] = VCaP, VCaP cells; highest percentage of Androgen Receptor degradation; read-out: VCaP Dmax (%)
[3] = read-out: VCaP DC50; VCaP cells; concentration that caused 50% Androgen Receptor degradation
[4] = read-out: VCaP DC50; VCaP cells; Table 34

Structure (SMILES) | DC50 [1] | Dmax [2] | Dmax (VCaP, read-out: VCaP Dmax (%)) | DC50 [4] | further results
Cc1ncoc1-c1ccc(CNC(=O)[C@@H]2C[C@@H](O)CN2C(=O)[C@@H](NC(=O)CNCCCCCOc2ccc(C(=O)N[C@H]3C(C)(C)[C@H](Oc4ccc(C#N)c(Cl)c4)C3(C)C)cc2)C(C)(C)C)cc1 [Example 189, (2S,4R)-1-[(2S)-3,3-dimethyl-2-(2-{[5-(4-{[trans-3-(3-chloro-4-cyanophenoxy)-2,2,4,4-tetramethylcyclobutyl]carbamoyl}phenoxy)pentyl]amino}acetamido)butanoyl]-4-hydroxy-N-{[4-(4-methyl-1,3-oxazol-5-yl)phenyl]methyl)pyrrolidine-2-carboxamide] |  |  |  |  | Dmax (VCaP, highest percentage of Androgen Receptor degradation observed, VCaP cells (Table 32); read-out: VCaP Dmax (%)): 51 to 70%; DC50 (concentration that caused 50% Androgen Receptor degradation, VCaP cells (Table 32); read-out: VCaP DC50): < 50 nM
CC(C)(C)[C@H](NC(=O)COCCCCOc1ccc(-c2ccc(N3C(=S)N(c4cnc(C#N)c(C(F)(F)F)c4)C(=O)C3(C)C)cc2)cc1)C(=O)N1C[C@H](O)C[C@H]1C(=O)NCc1ccc(-c2cnco2)cc1 [Example 190, (2S,4R)-1-[(2S)-2-(2-{4-[4-(4-{3-[6-cyano-5-(trifluoromethyl)pyridin-3-yl]-5,5-dimethyl-4-oxo-2-sulfanylideneimidazolidin-1-yl}phenyl)phenoxy]butoxy}acetamido)-3,3-dimethylbutanoyl]-4-hydroxy-N-{[4-(1,3-oxazol-5-yl)phenyl]methyl}pyrrolidine-2-carboxamide] | < 50 nM | > 71% |  |  | 
CC(C)(C)[C@H](NC(=O)COCCCCOc1ccc(-c2ccc(N3C(=S)N(c4cnc(C#N)c(Cl)c4)C(=O)C3(C)C)cc2)cc1)C(=O)N1C[C@H](O)C[C@H]1C(=O)NCc1ccc(-c2cnco2)cc1 [Example 191, (2S,4R)-1-[(2S)-2-{2-[4-(4-{4-[3-(5-chloro-6-cyanopyridin-3-yl)-5,5-dimethyl-4-oxo-2-sulfanylideneimidazolidin-1-yl]phenyl}phenoxy)butoxy]acetamido}-3,3-dimethylbutanoyl]-4-hydroxy-N-{[4-(1,3-oxazol-5-yl)phenyl]methyl}pyrrolidine-2-carboxamide] | < 50 nM | 51 to 70% |  |  | 
Cc1ncoc1-c1ccc(CNC(=O)[C@@H]2C[C@@H](O)CN2C(=O)[C@@H](NC(=O)COCCCCOc2ccc(-c3ccc(N4C(=S)N(c5cnc(C#N)c(C(F)(F)F)c5)C(=O)C4(C)C)cc3)cc2)C(C)(C)C)cc1 [Example 192, (2S,4R)-1-[(2S)-2-(2-{4-[4-(4-{3-[6-cyano-5-(trifluoromethyl)pyridin-3-yl]-5,5-dimethyl-4-oxo-2-sulfanylideneimidazolidin-1-yl}phenyl)phenoxy]butoxy}acetamido)-3,3-dimethylbutanoyl]-4-hydroxy-N-{[4-(4-methyl-1,3-oxazol-5-yl)phenyl]methyl}pyrrolidine-2-carboxamide] | < 50 nM | > 71% |  |  | 
Cc1ncsc1-c1ccc(CNC(=O)[C@@H]2C[C@@H](O)CN2C(=O)[C@@H](NC(=O)COCCCCOc2ccc(-c3ccc(N4C(=S)N(c5cnc(C#N)c(C(F)(F)F)c5)C(=O)C4(C)C)cc3)cc2)C(C)(C)C)cc1 [Example 193, (2S,4R)-1-[(2S)-2-(2-{4-[4-(4-{3-[6-cyano-5-(trifluoromethyl)pyridin-3-yl]-5,5-dimethyl-4-oxo-2-sulfanylideneimidazolidin-1-yl}phenyl)phenoxy]butoxy}acetamido)-3,3-dimethylbutanoyl]-4-hydroxy-N-{[4-(4-methyl-1,3-thiazol-5-yl)phenyl]methyl}pyrrolidine-2-carboxamide] | < 50 nM | > 71% |  |  | 
Cc1ncsc1-c1ccc([C@H](C)NC(=O)[C@@H]2C[C@@H](O)CN2C(=O)[C@@H](NC(=O)COCCCCOc2ccc(-c3ccc(N4C(=S)N(c5cnc(C#N)c(C(F)(F)F)c5)C(=O)C4(C)C)c(F)c3)cc2)C(C)(C)C)cc1 [Example 196, (2S,4R)-1-[(2S)-2-(2-{4-[4-(4-{3-[6-cyano-5-(trifluoromethyl)pyridin-3-yl]-5,5-dimethyl-4-oxo-2-sulfanylideneimidazolidin-1-yl}-3-fluorophenyl)phenoxy]butoxy}acetamido)-3,3-dimethylbutanoyl]-4-hydroxy-N-[(1S)-1-[4-(4-methyl-1,3-thiazol-5-yl)phenyl]ethyl]pyrrolidine-2-carboxamide] | < 50 nM | > 71% |  |  | 
Cc1ncoc1-c1ccc(CNC(=O)[C@@H]2C[C@@H](O)CN2C(=O)[C@@H](NC(=O)COCCCCOc2ccc(-c3ccc(N4C(=S)N(c5cnc(C#N)c(C(F)(F)F)c5)C(=O)C45CCC5)cc3)cc2)C(C)(C)C)cc1 [Example 198, (2S,4R)-1-[(2S)-2-(2-{4-[4-(4-{7-[6-cyano-5-(trifluoromethyl)pyridin-3-yl]-8-oxo-6-sulfanylidene-5,7-diazaspiro[3.4]octan-5-yl}phenyl)phenoxy]butoxy}acetamido)-3,3-dimethylbutanoyl]-4-hydroxy-N-{[4-(4-methyl-1,3-oxazol-5-yl)phenyl]methyl}pyrrolidine-2-carboxamide] | < 50 nM | 51 to 70% |  |  | 
Cc1ncsc1-c1ccc(CNC(=O)[C@@H]2C[C@@H](O)CN2C(=O)[C@@H](NC(=O)COCCCCOc2ccc(-c3ccc(N4C(=S)N(c5cnc(C#N)c(C(F)(F)F)c5)C(=O)C45CCC5)cc3)cc2)C(C)(C)C)cc1 [Example 199, (2S,4R)-1-[(2S)-2-(2-{4-[4-(4-{7-[6-cyano-5-(trifluoromethyl)pyridin-3-yl]-8-oxo-6-sulfanylidene-5,7-diazaspiro[3.4]octan-5-yl}phenyl)phenoxy]butoxy}acetamido)-3,3-dimethylbutanoyl]-4-hydroxy-N-{[4-(4-methyl-1,3-thiazol-5-yl)phenyl]methyl}pyrrolidine-2-carboxamide] | < 50 nM | 51 to 70% |  |  | 
CC(C)(C)[C@H](NC(=O)COCC1CC2(C1)CC(COc1ccc(N3C(=S)N(c4ccc(C#N)c(Cl)c4)C(=O)C3(C)C)cc1)C2)C(=O)N1C[C@H](O)C[C@H]1C(=O)NCc1ccc(-c2cnco2)cc1 (stereo partly shown) [Example 200] |  |  | > 71% |  | DC50 [3]: < 50 nM
Cc1ncsc1-c1ccc(CNC(=O)[C@@H]2C[C@@H](O)CN2C(=O)[C@@H](NC(=O)COCC2CC3(C2)CC(COc2ccc(N4C(=S)N(c5ccc(C#N)c(C(F)(F)F)c5)C(=O)C45CCC5)cc2)C3)C(C)(C)C)cc1 (stereo partly drawn) [Example 203, (2S,4R)-1-[(2S)-2-[2-({6-[(4-{7-[4-cyano-3-(trifluoromethyl)phenyl]-8-oxo-6-sulfanylidene-5,7-diazaspiro[3.4]octan-5-yl}phenoxy)methyl]spiro[3.3]heptan-2-yl}methoxy)acetamido]-3,3-dimethylbutanoyl]-4-hydroxy-N-{[4-(4-methyl-1,3-thiazol-5-yl)phenyl]methyl} pyrrolidine-2-carboxamide] |  |  | > 71% |  | DC50 [3]: < 50 nM
Cc1ncsc1-c1ccc(CNC(=O)[C@@H]2C[C@@H](O)CN2C(=O)[C@@H](NC(=O)CCOCCN2CCC(COc3ccc(N4C(=S)N(c5ccc(C#N)c(C(F)(F)F)c5)C(=O)C4(C)C)cc3)CC2)C(C)(C)C)cc1 [Example 313] |  |  |  | < 50 nM | 
Cc1ncsc1-c1ccc(CNC(=O)[C@@H]2C[C@@H](O)CN2C(=O)[C@H](C(C)C)N2CC(OCCOCCOc3ccc(N4C(=S)N(c5ccc(C#N)c(C(F)(F)F)c5)C(=O)C4(C)C)cc3)=CC2=O)cc1 [Example 314] |  |  | < 25% | 51 to 500 nM | 
Cc1ncsc1-c1ccc(CNC(=O)[C@@H]2C[C@@H](O)CN2C(=O)[C@@H](NC(=O)CCCOCCCOCCOc2ccc(N3C(=S)N(c4ccc(C#N)c(C(F)(F)F)c4)C(=O)C3(C)C)cc2)C(C)(C)C)cc1 [Example 315] |  |  | 26 to 50% | 51 to 500 nM | 
Cc1ncsc1-c1ccc(CNC(=O)[C@@H]2C[C@@H](O)CN2C(=O)[C@@H](NC(=O)CNCCCCOCCCOc2ccc(N3C(=S)N(c4ccc(C#N)c(C(F)(F)F)c4)C(=O)C3(C)C)cc2)C(C)(C)C)cc1 [Example 316] |  |  | 26 to 50% | 51 to 500 nM | 
Cc1ncsc1-c1ccc(CNC(=O)[C@@H]2C[C@@H](O)CN2C(=O)[C@@H](NC(=O)CN(C)CCCCOCCCOc2ccc(N3C(=S)N(c4ccc(C#N)c(C(F)(F)F)c4)C(=O)C3(C)C)cc2)C(C)(C)C)cc1 [Example 317] |  |  | 26 to 50% | 51 to 500 nM | 
Cc1ncsc1-c1ccc(CNC(=O)[C@@H]2C[C@@H](O)CN2C(=O)[C@@H](NC(=O)COCCC2CCN(CCOc3ccc(N4C(=S)N(c5ccc(C#N)c(C(F)(F)F)c5)C(=O)C4(C)C)cc3)CC2)C(C)(C)C)cc1 [Example 318] |  |  | 26 to 50% | 51 to 500 nM | 
